The record followed here is PubChem BioAssay (NCI).

Holding throughout (experiment): DTP human tumour cell line panel, 48 h
The test system of test [1] is BT-549 breast.
Test [2] deals with HOP-62 NSCLC.
For test [3], the system named is KM12 colon.
The test system of test [4] is MDA-MB-435.
Test [5] has as its system NCI-H23 lung.
Test [6] concerns NCI/ADR-RES ovarian.
Test [7] deals with RXF 393 renal.
For test [8], the system named is SF-295 CNS.
Test [9] concerns SK-MEL-2 melanoma.
The subject of test [10] is CCRF-CEM leukemia.

The structures appear in SMILES notation. Where “and” joins values, the source holds several entries; their conditions need not be identical. Equal values may be shown once.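 Where inhibition never reached the appropriate level, the endpoint shown equals the highest concentration tested. Otherwise, values were interpolated linearly from a five-concentration, 48-hour dose response in 96-well plates. GI50 marks 50% less growth. TGI: total growth inhibition.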 Bounds are passed on as bounds.

For orientation: TGI means the concentration giving total growth inhibition. A low value points to more potent growth arrest. Consider `O=C(O)C(Br)C(Br)C(=O)O` (configuration not stated), for which the total growth inhibition concentration (TGI) in test [1], in test [2], in [3], in [4], in test [5] and in test [6] was greater than 100 µM in each case. Besides, the total growth inhibition concentration (TGI) in test [7], in [8] and in test [9] was greater than 100 µM throughout.

In the case of `O=C(O)CNc1ccc(Cl)c(Cl)c1`, the total growth inhibition concentration (TGI) was greater than 100 µM in [1]; 84.8 µM in test [10]; 86.1 µM in [2]; 55.1 µM in [3]; 79.2 µM in [4]; greater than 100 µM in test [5]. For the same compound, the TGI in test [6] is 84.6 µM; in test [7], greater than 100 µM; in test [8] it was 75.9 µM.

What is called GI50 is the concentration at which growth is held to half of that of the control. For the compound `O=C1CSC(c2ccc(-c3nc4ccccc4[nH]3)cc2)=N1`, the GI50 was 42.4 µM in [1]; greater than 50 µM in test [2]; 22.8 µM in test [3]; 32.5 µM in test [4]; 47.4 µM in test [5]; greater than 50 µM in test [6]. The GI50 in test [8] is 29.5 µM; in test [9], 19 µM. The TGI in test [1], in test [2], in [3], in [4], in [5] and in test [6] was greater than 50 µM in each case. In addition, the TGI in [8] and in test [9] was greater than 50 µM in each case.

In the case of `CCCCCCCCCCCC[N+](C)(C)Cc1ccccc1`, the GI50 in [1] is 1.74 µM; in test [10], 1.88 µM; in test [2] it was 2.69 µM; in test [3], 1.48 µM; in [4], 1.58 µM; in [5] it was 2.5 µM. The GI50 is 41.9 µM in test [6], 2.82 µM in [8] and 1.97 µM in test [9]. In addition, the total growth inhibition concentration (TGI) in [1] amounted to 3.29 µM; in test [10], 5.43 µM; in test [2], 7.27 µM; in [3], 3.14 µM; in test [4], 3.72 µM; in test [5], 10.2 µM. For the same compound, the results for the total growth inhibition concentration (TGI) in test [6], in test [8] and in test [9] were greater than 100 µM, 12.2 µM and 3.6 µM, respectively.

As to `CC(=O)O[C@@]12CO[C@@H]1C[C@H](O)[C@@]1(C)C(=O)[C@H](O)C3=C(C)[C@@H](OC(=O)[C@H](O)[C@@H](NC(=O)OC(C)(C)C)c4ccccc4)C[C@@](O)([C@@H](OC(=O)c4ccccc4)C12)C3(C)C` (some centres not stated), the TGI in [1] was 0.0338 µM; in [10] it was 29.3 µM and 60.8 µM; in [2] it was 50 µM and > 100 µM; in test [3], 50 µM and 27.7 µM; in test [5] it was 50 µM; in test [6] it was 2.77 µM and 15.4 µM. Further, the TGI in test [8] is 50 µM and 16.8 µM; in test [9], greater than 100 µM. Moreover, the GI50 was less than 0.005 µM in test [10]; less than 0.005 µM in test [2]; less than 0.005 µM in test [3]; less than 0.005 µM in test [5]; 0.35 µM and 2.05 µM in test [6]; 0.016 µM in test [8]. For the same compound, the 50% growth inhibitory concentration (GI50) in test [9] was 0.0355 µM.

Turning to `O=C1C=C2C=CC3CC2(O1)C1CCCCN31` (configuration not stated), the GI50 in test [1] is 13.8 µM and 10.8 µM and 37 µM; in test [10], 15.3 µM and 11 µM and 28.4 µM; in test [4], 10.1 µM and 8.06 µM and 22 µM; in test [5] it was 19.9 µM and 15 µM and 31.7 µM; in test [6], 21.3 µM and 16.8 µM and 35.4 µM. Also, the TGI in test [1] was 51.3 µM and 30.3 µM and > 100 µM; in [10] it was 96.6 µM and 41.3 µM and 83.3 µM; in test [3], 70.7 µM and 28.5 µM and 57.6 µM; in test [4], 41.6 µM and 39.3 µM and 66.3 µM; in test [5] it was 56.7 µM and 43.5 µM and > 100 µM; in test [6], 61.2 µM and 43.4 µM and > 100 µM. In addition, the TGI in [8] was > 100 µM and 76.1 µM; in test [9], > 100 µM and 44.5 µM and 94.4 µM.

Regarding `CCNc1cc2oc(=O)cc(C(F)(F)F)c2cc1C`, the TGI in test [1], in test [2], in test [3], in [4], in test [5] and in [6] was greater than 100 µM throughout. The TGI in test [7], in [8] and in test [9] was greater than 100 µM throughout.

With `COc1cccc(OC(=O)c2ccc(C(F)(F)F)nc2Nc2c(C)cccc2Cl)c1`, the GI50 in test [1] was 30.4 µM; in [10], 25.6 µM; in [2] it was 25.9 µM; in test [4] it was 35 µM; in [5], 1.84 µM; in [7], 25 µM. Moreover, the values for the GI50 in [8] and in test [9] were 17.1 µM and 19.4 µM, respectively. Besides, the concentration for total growth inhibition (TGI) is greater than 100 µM in [1]; 78.9 µM in test [10]; 82.3 µM in [2]; greater than 100 µM in [4]; 19 µM in test [5]; 55.7 µM in [7]. For the same compound, the TGI in test [8] came to 48.5 µM; in test [9] it was 45.9 µM.

For `Cc1ccc(-c2c(C#N)[n+](=O)c3cc(F)c(F)cc3n2[O-])cc1`, the GI50 in test [1] was 18.5 µM; in test [10], 1.6 µM; in [2] it was 5.26 µM; in test [3], 9.9 µM; in test [4] it was 2.27 µM; in test [5] it was 2.33 µM. Further, the GI50 was 2.83 µM in test [6], 2.63 µM in test [7] and 2.01 µM in test [8]. Moreover, the TGI came to 33.7 µM in test [1]; 4.41 µM in test [10]; 19.7 µM in test [2]; 28.3 µM in test [3]; 5.95 µM in [4]; 6.47 µM in test [5]. The TGI in [6] worked out at 9.2 µM; in [7], 8.91 µM; in test [8], 5.27 µM.

With `O=C(O)/C=C/c1ccc[c]([Sb](=[O])([OH])[OH])c1`, the GI50 in test [1], in [2], in test [3], in test [4], in [5] and in test [6] was greater than 100 µM in each case. The GI50 in test [7], in test [8] and in test [9] was greater than 100 µM throughout. For the same compound, the TGI in [1], in [2], in test [3], in test [4], in test [5] and in test [6] was greater than 100 µM each time. For the same compound, the TGI in [7], in test [8] and in test [9] was greater than 100 µM throughout.

On to `COc1ccc(-c2nsc3c2NC(=O)CC3c2ccc3c(c2)OCCO3)cc1` (configuration not stated), for which the GI50 in [1] was 0.674 µM; in test [10] it was 0.406 µM; in [2], 0.585 µM; in [3], 0.521 µM; in [4], 0.173 µM; in test [5], 1.38 µM. The values for the GI50 in [7], in [8] and in test [9] were 0.629 µM, 0.434 µM and 7.24 µM, respectively. In addition, the total growth inhibition concentration (TGI) in test [1] is greater than 100 µM; in [10] it was greater than 100 µM; in [2], greater than 100 µM; in [3], greater than 100 µM; in test [4] it was 0.438 µM; in [5], greater than 100 µM. In addition, the concentration for total growth inhibition (TGI) in [8] was greater than 33.2 µM; in test [9], greater than 100 µM.

On to `O=C1OCC(c2ccc(O)cc2)=C1c1cc(O)c(O)c(O)c1`, for which the GI50 is greater than 100 µM in test [1]; 51.7 µM in [10]; 58.6 µM in test [2]; 89.3 µM in test [3]; 26.4 µM in [4]; greater than 100 µM in [5]. Further, the values for the GI50 in test [6], in test [7] and in test [8] were 25.2 µM, greater than 100 µM and 26.4 µM, respectively. Besides, the concentration for total growth inhibition (TGI) in test [1] was greater than 100 µM; in test [10] it was greater than 100 µM; in [2] it was greater than 100 µM; in test [3] it was greater than 100 µM; in test [4], 53.8 µM; in [5] it was greater than 100 µM. Further, the total growth inhibition concentration (TGI) was 62.8 µM in test [6], greater than 100 µM in [7] and 50.4 µM in test [8].

For the compound `COc1cc2c3c(n(CCCCNC(=O)OC(C)(C)C)c(=O)c2cc1OC)-c1cc2c(cc1C3=O)OCO2`, the GI50 is greater than 100 µM in test [1]; 28.1 µM in test [2]; greater than 100 µM in test [3]; greater than 100 µM in test [4]; greater than 100 µM in test [5]; greater than 100 µM in test [6]. Besides, the GI50 was 17.5 µM in test [7], 16.1 µM in test [8] and greater than 100 µM in [9]. In addition, the TGI in test [1], in [2], in test [3], in test [4], in test [5] and in test [6] was greater than 100 µM throughout. Besides, the values for the concentration for total growth inhibition (TGI) in test [7], in test [8] and in test [9] were 62.1 µM, greater than 100 µM and greater than 100 µM, respectively.

Regarding `O=C1Nc2ccccc2/C1=C\c1cccc(/C=C2/C(=O)Nc3ccccc32)n1`, the GI50 was 0.356 µM in test [10]; 1.96 µM in [2]; 0.282 µM in test [3]; 0.355 µM in test [4]; 0.855 µM in test [5]; 0.689 µM in [6]. The 50% growth inhibitory concentration (GI50) in [7] was 0.248 µM; in test [8] it was 0.499 µM; in [9], 0.631 µM. The TGI is greater than 100 µM in test [10]; 3.92 µM in test [2]; 1.02 µM in [3]; 1.81 µM in test [4]; 2.43 µM in [5]; 6.47 µM in test [6]. In addition, the concentration for total growth inhibition (TGI) in [7] worked out at 0.61 µM; in test [8], 2.24 µM; in test [9], 1.62 µM.
